# Data from patent US20070232698A1, “Slimming Skin External Preparation and Cosmetic Containing the Same” (priority 2004, published 2007).
# What was measured:
# [1] = test system: human skin tissue three dimensional model (TESTSKIN LSD-d)
# Description: The test substances were each dissolved in Dulbecco's PBS (−) to give a 1% by mass solution of the test substance. The test substance solutions were placed, each 50 μL, to a tissue surface of human skin tissue three dimensional model (TESTSKIN™ LSD-d, available from TOYOBO CO., LTD.), and were incubated at 37° C. in a 5% CO2 atmosphere for 2 hours. Thereafter the test substance solutions were aspirated out, and the skin models were further incubated at 37° C. in a 5% CO2 atmosphere for 2, 6 or 12 hours. The skin models were sampled after the lapse of each of the incubation times. The skin models sampled at the incubation times were washed with Dulbecco's PBS (−), and the tissue surfaces on which the test substances had been placed were punched out with a punch 6 mm in diameter. The skin models were then homogenated in a HEPES buffer solution (pH: 7.2), and were quantitatively analyzed using a high performance liquid chromatography to determine the carnitine content in the skin model.
# From the analysis results, the carnitine contents in the skin models (unit: nmol/mg skin protein) were obtained for the test substances at each of the incubation times.
# [2] = test system: skin together with subcutaneous fat tissues; assay: Subcutaneous fat breakdown test (rat abdominal skin with subcutaneous fat in Franz diffusion cell); details: lower cell PBS (−), 37° C., average of three measurements, control (none) 20
# Description: A male Wister rat, 10 weeks old, was shaved on the abdomen, and the skin was removed together with subcutaneous fat tissues and was placed in a Franz diffusion cell. An upper cell on the skin surface was filled with a buffer solution containing the Example 1 test substance, and a lower cell was filled with Dulbecco's PBS (−). The diffusion cell was held at 37° C. and was allowed to stand for 8 or 16 hours. After the lapse of each of the standing times, PBS (−) was withdrawn from the lower cell. The content of free glycerol resulting from the fat breakdown was measured with use of Glycerol Test E Wako. The results are averages of three measurements.
# The free glycerol contents were measured in the same manner as in Example 3, except that the two carnitine and carnitine derivative 1) and 6) used in Example 4 were tested. The results are averages of three measurements.
# The free glycerol contents were measured in the same manner as in Example 3, except that the three carnitine and carnitine derivatives 1), 7) and 8) used in Example 7 were tested. The results are averages of three measurements.
# [3] = test system: Mouse 3T3 adipocytes; assay: Measurement of fat metabolic activity for mouse 3T3 adipocytes (free glycerol in culture medium); format: cell-based; details: 250 μM test substance, medium recovered after 24 hours; control (none) = 100
# Description: The five carnitine and carnitine derivatives 1) to 5) used in Example 1 were tested. The fat metabolic activity was measured and compared by quantitative determination of glycerol in the culture medium based on the fact that metabolism of the fat accumulated in adipocytes releases glycerol and free fatty acid to the culture medium.
# Mouse 3T3 cells as the preadipocytes were disseminated on a 10 cm-diameter dish such that 1×10^4 cells were on the dish. […] Thereafter, the culture medium was replaced with a 10% FCS-containing DMEM culture medium that contained […] of dexamethasone, 0.5 mM of isobutylmethylxanthine and 10 μg/ml of insulin, and incubation was continued for another 2 days. Subsequently, the culture medium was replaced again with a 10% FCS-containing ordinary DMEM culture medium, and incubation was performed for another week, resulting in differentiation of the preadipocytes into adipocytes. Next, the culture medium was replaced with an ordinary culture medium that contained 250 μM of the carnitine or carnitine derivative of the five substances 1) to 5) used in Example 1, and the culture medium was recovered after 24 hours. The cells were washed with Dulbecco's PBS (−) and were recovered. Cells incubated in the absence of the test substances were used as the control. The glycerol content in the culture medium was quantitatively determined using Glycerol Test E Wako (Wako Pure Chemical Industries, Ltd.).
# The fat metabolic activity for mouse 3T3 adipocytes was determined based on the free glycerol content in the same manner as in Example 2, except that the two carnitine and carnitine derivative 1) and 6) used in Example 4 were tested.
# The fat metabolic activity for mouse 3T3 adipocytes was determined based on the free glycerol content in the same manner as in Example 2, except that the three carnitine and carnitine derivatives 1), 7) and 8) used in Example 7 were tested.
Compound,"carnitine content in the skin model, After 2-hour incubation [1] [nmol/mg skin protein]","carnitine content in the skin model, After 6-hour incubation [1] [nmol/mg skin protein]","carnitine content in the skin model, After 12-hour incubation [1] [nmol/mg skin protein]","Free glycerol, After 8 hours [2] [µmol/mL]","Free glycerol, After 16 hours [2] [µmol/mL]",Free glycerol content (% relative to the control) [3]
"CCCCCCCCCCCCCC(=O)O[C@H](CC(=O)O)C[N+](C)(C)C.[Cl-] [Test substance 3), Tetradecanoyl-L-carnitine hydrochloride]",6,12,22,112,146,168 % relative to the control
"CCCCCCCCCCCCCCCCCC(=O)O[C@H](CC(=O)O)C[N+](C)(C)C.[Cl-] [Test substance 5), Octadecanoyl-L-carnitine hydrochloride]",5,10,25,117,158,176 % relative to the control
"CCCCCC(=O)O[C@H](CC(=O)O)C[N+](C)(C)C.[Cl-] [Test substance 2), Hexanoyl-L-carnitine hydrochloride]",7,14,21,116,138,155 % relative to the control
"CCCCCCCCCCCCCCCC(=O)O[C@H](CC(=O)O)C[N+](C)(C)C.[Cl-] [Test substance 4), Hexadecanoyl-L-carnitine hydrochloride]",6,10,23,125,170,180 % relative to the control
